# Measurements taken from ChEMBL document CHEMBL3885881, “DrugMatrix”.
# Columns and labels:
# Rattus norvegicus [1] = species: Rattus norvegicus; experiment: DrugMatrix - Regimen: Daily Repeat; format: toxicity, organism-based, Sprague-Dawley; parameters: regimen Daily Repeat, gender Male, age 6-8 weeks; conditions: in vivo, po, 200 mg/kg, […], route oral GAVAGE, dose level High, time 14 day, vehicle .5 % CMC
# Rattus norvegicus [2] = species: Rattus norvegicus; format: toxicity, organism-based, Sprague-Dawley; conditions: in vivo, po, 200 mg/kg, 24 h, route oral GAVAGE, dose level High, time 1 day, vehicle .5 % CMC
# Description: DrugMatrix - Regimen: Single
smiles,measurement,setting,value
CC(C)=C1CC[C@@H](C)CC1=O [PULEGONE],ABSOLUTE BASOPHIL,Rattus norvegicus [1]; tissue Blood,0 CELLS/uL
same,ABSOLUTE EOSINOPHIL,Rattus norvegicus [1]; tissue Blood,211.4 CELLS/uL
same,ABSOLUTE LYMPHOCYTE,Rattus norvegicus [1]; tissue Blood,21257.2 CELLS/uL
same,ABSOLUTE MONOCYTE,Rattus norvegicus [1]; tissue Blood,665.8 CELLS/uL
same,ABSOLUTE SEGMENTED NEUTROPHIL,Rattus norvegicus [1]; tissue Blood,3705.6 CELLS/uL
same,BASOPHIL,Rattus norvegicus [1]; tissue Blood,0%
same,EOSINOPHIL,Rattus norvegicus [1]; tissue Blood,0.8%
same,ERYTHROCYTE COUNT,Rattus norvegicus [1]; tissue Blood,6.34 x10E6/uL
same,HEMATOCRIT,Rattus norvegicus [1]; tissue Blood,37.3%
same,HEMOGLOBIN,Rattus norvegicus [1]; tissue Blood,13.88 G/DL
same,LEUKOCYTE COUNT,Rattus norvegicus [1]; tissue Blood,25.84 x10E3/uL
same,LYMPHOCYTE,Rattus norvegicus [1]; tissue Blood,82.2%
same,MEAN CORPUSCULAR HEMOGLOBIN,Rattus norvegicus [1]; tissue Blood,21.94 pg
same,MEAN CORPUSCULAR HEMOGLOBIN CONCENTRATION,Rattus norvegicus [1]; tissue Blood,37.2 G/DL
same,MEAN CORPUSCULAR VOLUME,Rattus norvegicus [1]; tissue Blood,58.94 fL
same,MONOCYTE,Rattus norvegicus [1]; tissue Blood,2.6%
same,NEUTROPHIL,Rattus norvegicus [1]; tissue Blood,14.4%
same,NUCLEATED RED BLOOD CELLS,Rattus norvegicus [1]; tissue Blood,0 /100WBC
same,PLATELET COUNT,Rattus norvegicus [1]; tissue Blood,1150.2 x10E3/uL
same,ALANINE AMINOTRANSFERASE,Rattus norvegicus [1]; tissue Plasma,78.8 u/L
same,ALBUMIN,Rattus norvegicus [1]; tissue Plasma,4.54 G/DL
same,ALKALINE PHOSPHATASE,Rattus norvegicus [1]; tissue Plasma,518 u/L
same,ASPARTATE AMINOTRANSFERASE,Rattus norvegicus [1]; tissue Plasma,93.8 u/L
same,BLOOD UREA NITROGEN,Rattus norvegicus [1]; tissue Plasma,14.2 mg/dL
same,CARBON DIOXIDE,Rattus norvegicus [1]; tissue Plasma,27.4 mmol/L
same,CHLORIDE,Rattus norvegicus [1]; tissue Plasma,102.2 MEQ/L
same,CHOLESTEROL,Rattus norvegicus [1]; tissue Plasma,65 mg/dL
same,CREATININE,Rattus norvegicus [1]; tissue Plasma,0.18 mg/dL
same,GLUCOSE,Rattus norvegicus [1]; tissue Plasma,128.2 mg/dL
same,LACTATE DEHYDROGENASE,Rattus norvegicus [1]; tissue Plasma,147 u/L
same,LIPASE,Rattus norvegicus [1]; tissue Plasma,11 u/L
same,PHOSPHORUS,Rattus norvegicus [1]; tissue Plasma,12.52 mg/dL
same,POTASSIUM,Rattus norvegicus [1]; tissue Plasma,7 MEQ/L
same,SODIUM,Rattus norvegicus [1]; tissue Plasma,148.6 MEQ/L
same,TOTAL BILIRUBIN,Rattus norvegicus [1]; tissue Plasma,0.32 mg/dL
same,TOTAL PROTEIN,Rattus norvegicus [1]; tissue Plasma,6.52 G/DL
same,URIC ACID,Rattus norvegicus [1]; tissue Plasma,2.08 mg/dL
same,ABSOLUTE EOSINOPHIL,Rattus norvegicus [2]; tissue Blood,46 CELLS/uL
same,ABSOLUTE LYMPHOCYTE,Rattus norvegicus [2]; tissue Blood,13023.67 CELLS/uL
same,ABSOLUTE MONOCYTE,Rattus norvegicus [2]; tissue Blood,245.33 CELLS/uL
same,ABSOLUTE SEGMENTED NEUTROPHIL,Rattus norvegicus [2]; tissue Blood,1251.67 CELLS/uL
same,BASOPHIL,Rattus norvegicus [2]; tissue Blood,0%
same,EOSINOPHIL,Rattus norvegicus [2]; tissue Blood,0.33%
same,ERYTHROCYTE COUNT,Rattus norvegicus [2]; tissue Blood,5.98 x10E6/uL
same,HEMATOCRIT,Rattus norvegicus [2]; tissue Blood,37.73%
same,HEMOGLOBIN,Rattus norvegicus [2]; tissue Blood,13.9 G/DL
same,LEUKOCYTE COUNT,Rattus norvegicus [2]; tissue Blood,14.57 x10E3/uL
same,LYMPHOCYTE,Rattus norvegicus [2]; tissue Blood,90%
same,MEAN CORPUSCULAR HEMOGLOBIN,Rattus norvegicus [2]; tissue Blood,23.43 pg
same,MEAN CORPUSCULAR HEMOGLOBIN CONCENTRATION,Rattus norvegicus [2]; tissue Blood,37 G/DL
same,MEAN CORPUSCULAR VOLUME,Rattus norvegicus [2]; tissue Blood,63.4 fL
same,MONOCYTE,Rattus norvegicus [2]; tissue Blood,1.67%
same,NEUTROPHIL,Rattus norvegicus [2]; tissue Blood,8%
same,NUCLEATED RED BLOOD CELLS,Rattus norvegicus [2]; tissue Blood,0 /100WBC
same,PLATELET COUNT,Rattus norvegicus [2]; tissue Blood,961.67 x10E3/uL
same,ALANINE AMINOTRANSFERASE,Rattus norvegicus [2]; tissue Plasma,52.67 u/L
same,ALBUMIN,Rattus norvegicus [2]; tissue Plasma,4.3 G/DL
same,ALKALINE PHOSPHATASE,Rattus norvegicus [2]; tissue Plasma,476.33 u/L
same,ASPARTATE AMINOTRANSFERASE,Rattus norvegicus [2]; tissue Plasma,110 u/L
same,BLOOD UREA NITROGEN,Rattus norvegicus [2]; tissue Plasma,12.33 mg/dL
same,CARBON DIOXIDE,Rattus norvegicus [2]; tissue Plasma,23.67 mmol/L
same,CHLORIDE,Rattus norvegicus [2]; tissue Plasma,103.5 MEQ/L
same,CHOLESTEROL,Rattus norvegicus [2]; tissue Plasma,77.67 mg/dL
same,CREATININE,Rattus norvegicus [2]; tissue Plasma,0.14 mg/dL
same,GLUCOSE,Rattus norvegicus [2]; tissue Plasma,133.33 mg/dL
same,LACTATE DEHYDROGENASE,Rattus norvegicus [2]; tissue Plasma,244 u/L
same,LIPASE,Rattus norvegicus [2]; tissue Plasma,10 u/L
same,PHOSPHORUS,Rattus norvegicus [2]; tissue Plasma,12.8 mg/dL
same,POTASSIUM,Rattus norvegicus [2]; tissue Plasma,6.49 MEQ/L
same,SODIUM,Rattus norvegicus [2]; tissue Plasma,142.65 MEQ/L
same,TOTAL BILIRUBIN,Rattus norvegicus [2]; tissue Plasma,0.23 mg/dL
same,TOTAL PROTEIN,Rattus norvegicus [2]; tissue Plasma,6 G/DL
same,URIC ACID,Rattus norvegicus [2]; tissue Plasma,1.8 mg/dL
